This assay concerns L. donovani-infected THP-1 macrophages, intracellular amastigote imaging. The assay can be described thus: intracellular L. donovani amastigote inhibition, imaging, THP-1 host macrophages, host toxicity (AID 1159564).
The mark [1] stands for this setting: measured here: THP-1 host cell toxicity.
Where [2] appears, read: measured here: amastigotes per macrophage.

Calls of active or inactive are those of the source. No rule for the calls is given here. Some results are limits rather than exact numbers.

Usually IC50 stands for the concentration that inhibits the measured activity by half. For the compound `O=c1ccc2ccc(F)c3c2n1C[C@H]3CN1CCC(NCc2cc3ccccc3o2)CC1`, the IC50 was 20 µM. This compound displayed an IC50 under setting [1] of 32 µM. The compound further showed an IC50 under setting [2] of 13 µM.
Turning to `Cc1[nH]n2c(=O)c3c(nc2c1-c1ccc(F)cc1)CCCC3`, the IC50 was > 50 µM (inactive). The IC50 under setting [1] was > 50 µM. Besides, the IC50 under setting [2] is > 50 µM.
On to `CCOc1cc(NCCCN2CCN(C)CC2)c2ncccc2c1`, for which the IC50 was 1.3 µM. Under setting [1], this compound showed an IC50 of 6.3 µM. The IC50 under setting [2] stood at 0.79 µM.
As to `CC(=O)NC1(c2ccccc2)CCN(CC(=O)Nc2ccccc2-c2ccccc2)CC1`, the IC50 was > 50 µM (inactive). Moreover, the IC50 under setting [1] was > 50 µM. The same compound registered an IC50 under setting [2] of 40 µM.
Take `CC(=O)Nc1ccc(-c2ccnc(Nc3cccc(C#N)c3)n2)cc1`: the IC50 is 16 µM. The compound further gave an IC50 under setting [1] of 10 µM. The compound also displayed an IC50 under setting [2] of 10 µM.
Take `O=c1[nH]ccc2ccc(-c3ccncc3)cc12`: the IC50 is > 50 µM (inactive). The same compound had an IC50 under setting [1] of 40 µM. This compound displayed an IC50 under setting [2] of 20 µM.
The corresponding values for `Cc1cc(Nc2cc(C3CC3)[nH]n2)nc(N2CCC[C@H]2C(N)=O)n1` are 0.2 µM, 0.13 µM and 0.079 µM.
Turning to `Cc1ccccc1NS(=O)(=O)c1ccc2[nH]cc(C(=O)NC3CCCCC3)c(=O)c2c1`, the IC50 was 40 µM. The compound further showed a concentration for half-maximal inhibition (IC50) under setting [1] of 32 µM. The IC50 under setting [2] turned out to be 40 µM.
In the case of `Cc1nn(-c2nc(N)nc(-c3ccccn3)n2)c(N)c1-c1ccccc1`, the IC50 is 3.2 µM. Further, under setting [1], the IC50 came to 20 µM. Besides, the IC50 under setting [2] is 2 µM.
Take `O=C(NCC1CCCCC1)c1cc(=O)c2ccccc2o1`: the IC50 is 16 µM. Also, under setting [1], the IC50 is < 50 µM. Under setting [2], this compound came in with an IC50 of 6.3 µM.
`COc1cc(OC)cc(C(NS(=O)(=O)c2ccc(Cl)c(C(F)(F)F)c2)c2nccn2C)c1` (stereo not drawn): the IC50 was 6.3 µM. Besides, under setting [1], the IC50 is > 50 µM. The compound also showed an IC50 under setting [2] of 5 µM.
With `COc1cccc(CN(C)Cc2nc(N)c3c(C)c(C)sc3n2)c1`, the IC50 is 5 µM. Under setting [1], this compound returned an IC50 of 32 µM. The IC50 under setting [2] worked out at 3.2 µM.
For the compound `Cc1cn[nH]c1C1CCCN(Cc2nc3ccccc3n2C)C1` (stereo not drawn), the IC50 is 4 µM. The same compound returned a half-maximal inhibitory concentration (IC50) under setting [1] of 20 µM. Under setting [2], this compound gave an IC50 of 3.2 µM.
Regarding `COc1ccc(-c2cnc(C)o2)cc1S(=O)(=O)Nc1ccc(C)cc1C`, the 50% inhibitory concentration (IC50) is 3.2 µM. In addition, the IC50 under setting [1] is > 50 µM. For the same compound, the IC50 under setting [2] was found to be 2.5 µM.
`Cn1cncc1CN1CCC2(CC1)COC(Cc1ccccc1)C2` (stereo not drawn): the IC50 is > 50 µM (inactive). The IC50 under setting [1] is > 50 µM.
For the compound `CNC(=O)Oc1ccc(C(=O)NCc2ccccc2)cc1OC(=O)NC`, the IC50 is > 50 µM (inactive). Moreover, the IC50 under setting [1] was > 50 µM. Moreover, under setting [2], the IC50 was > 50 µM.
As to `COc1ccc(-c2csc(NC(=O)c3ccc([N+](=O)[O-])s3)n2)cc1`, the IC50 was 4 µM. Also, the IC50 under setting [1] was > 50 µM. The compound further returned an IC50 under setting [2] of 1.6 µM.
As to `Cn1nc(C(=O)N2CCc3ccccc32)c2c1CCS(=O)(=O)C2`, the IC50 was 4 µM. Moreover, the IC50 under setting [1] is > 50 µM. Under setting [2], this compound displayed an IC50 of 1.6 µM.
In the same order, the values of `CN1CCCN(C(=O)c2ccc(N3CCCC3)cc2Cl)CC1` are > 50 µM (inactive), > 50 µM and > 50 µM.
Regarding `O=C(Nc1nc2cc(Cl)ccc2o1)c1cccc(Cl)c1`, the IC50 was > 50 µM (inactive). Further, under setting [1], the 50% inhibitory concentration (IC50) turned out to be 6.3 µM. Also, the IC50 under setting [2] was > 50 µM.
The corresponding values for `Clc1cc(Br)ccc1OCCCCn1ccnc1` are 25 µM, 32 µM and 6.3 µM.
In the same order, the values of `Cc1ccc2c(c1)SC(C(=O)Nc1n[nH]c(-c3ccccn3)n1)C2` (stereo not drawn) are 4 µM, 25 µM and 2.5 µM.
Regarding `COc1cccc(C(=O)[C@H]2C[C@@H]2CN(Cc2ccccn2)Cc2ccccn2)c1`, the IC50 is 2 µM. Also, the concentration for half-maximal inhibition (IC50) under setting [1] was > 50 µM. This compound also showed an IC50 under setting [2] of 1.6 µM.
With `CCCC(=O)N(Cc1ccccn1)c1nc2ccccc2s1`, the IC50 was > 50 µM (inactive). In addition, under setting [1], the IC50 is > 50 µM. Under setting [2], this compound had an IC50 of 10 µM.
In the same order, the values of `Cc1ncsc1CNc1cnc(-c2ccc3c(c2)OCCO3)c(-c2cnn(C)c2)c1` are 16 µM, 16 µM and 13 µM.
Turning to `NC(N)=Nc1nc(-c2ccc(NC(N)=NCCN3CCCC3)cc2)cs1`, the IC50 is > 50 µM (inactive). Besides, the IC50 under setting [1] is > 50 µM. Under setting [2], the IC50 is > 50 µM.
For `O=C(c1cccc(Nc2ncc(-c3ccc4c(c3)OCO4)cn2)c1)N1CCOCC1`, the IC50 was 4 µM. Moreover, the IC50 under setting [1] came out at 63 µM. The IC50 under setting [2] came to 1.6 µM.
The corresponding values for `Cn1cc(CN2CCN(c3ccc4c(c3)CCN(C(=O)[C@H]3C[C@@H]3c3ccccc3)CC4)CC2)cn1` are 32 µM, 6.3 µM and 1 µM.
For `Cc1cc(C)cc(NS(=O)(=O)c2cc(-c3cc(C)[nH]n3)ccc2C)c1`, the IC50 is 7.9 µM. The IC50 under setting [2] turned out to be 3.2 µM.
As to `O=C(c1cc2cc(Cl)ccc2[nH]1)N1CCCCC1c1cccnc1` (stereo not drawn), the IC50 is 32 µM. Under setting [1], this compound registered an IC50 of 16 µM. Under setting [2], this compound showed an IC50 of 10 µM.
The corresponding values for `O=C1NCCn2ccc(Nc3nc(NC4CCC(O)CC4)ncc3Cl)c21` (stereo not drawn) are 1 µM, 0.4 µM and 0.63 µM.
In the same order, the values of `Cc1nn2c(NCCCO)c3c(nc2c1-c1cccs1)CCC3` are > 50 µM (inactive), > 50 µM and > 50 µM.
As to `O=C(Cc1ccccc1)Nc1[nH]nc2sc(C(=O)NC3CCCC3)cc12`, the IC50 is 3.2 µM. Under setting [1], the IC50 is 1.6 µM. This compound showed an IC50 under setting [2] of 1.6 µM.
Regarding `C[C@@H](Oc1cc(-n2cnc3ccc(O[C@H]4CCNC4)cc32)sc1C(N)=O)c1ccccc1Cl`, the IC50 is 7.9 µM. The compound also showed an IC50 under setting [1] of 6.3 µM. This compound showed an IC50 under setting [2] of 5 µM.
On to `CC(C(=O)Nc1ccccc1F)N(C)CC(=O)Nc1cccc2ccccc12` (stereo not drawn), for which the IC50 was > 50 µM (inactive). The IC50 under setting [1] is > 50 µM. Also, under setting [2], the IC50 was > 50 µM.
For the compound `CN1CCC(N(C)c2nccc(N3CCN(C(=O)c4cccc(-c5cccnc5)c4)CC3)n2)CC1`, the IC50 is 1.3 µM. The same compound returned an IC50 under setting [1] of 7.9 µM. This compound gave an IC50 under setting [2] of 1.3 µM.
With `Cc1nc2nc(C)c(Cc3ccc(C(C)C)cc3)c(=O)n2[nH]1`, the IC50 is 32 µM. Also, the IC50 under setting [1] is > 50 µM. The same compound returned an IC50 under setting [2] of 16 µM.
The corresponding values for `O=C(NC(c1ccc(Cl)cc1)c1cnccn1)C1CCN(C(=O)Nc2cccc(C(F)(F)F)c2)CC1` (stereo not drawn) are > 50 µM (inactive), 40 µM and > 50 µM.
`O=C(Nc1ccc(S(=O)(=O)N2CCCC2)cc1)c1ccc([N+](=O)[O-])s1`: the IC50 was 1.6 µM. Moreover, the IC50 under setting [1] is > 50 µM. The compound further displayed an IC50 under setting [2] of 1 µM.
In the same order, the values of `COc1ncc(-c2ccc3nccc(-c4ccncc4)c3c2)cc1NS(=O)(=O)C1CC1` are 1.3 µM, 1 µM and 0.32 µM.

(Values after PubChem BioAssay AID1159564 (GlaxoSmithKline (GSK), 2015).)
